# Patent publication US20040091933A1, “Methods for genetic interpretation and prediction of phenotype” (priority 2003, published 2004)
# Tested on: yeast
# Assay: Comparison of the transcript profile of clotrimazole-treated yeast with landmark transcript profiles of yeast mutants (correlation coefficient r)
# Assay type: cell-based
# Settings: transcript abundances relative to wild-type
# Protocol: FIG. 2(a-f) illustrates the correlation between the transcriptional response profile of yeast treated with clotrimazole and the transcriptional response profiles of yeast with perturbations in SWI4, RPD3, CNA1 CNA2, HMG2 and ERG11 genes. A straight line (higher correlation coefficient, r) indicates the greatest similarity.
# In a preferred embodiment, the similarity between profiles is measured by a weighted correlation coefficient, r, given by Equation 4: [formula]
# xik is […] and xjk is qjk/σjk, where qik and qjk are the logarithms of the expression ratios between the perturbed and baseline conditions for gene k in profiles i and j, respectively, and σik and σjk are the expected root mean square uncertainties in the measurements of qik and qjk, respectively. This is an optimally-weighted measure of correlation between two profiles, given the error estimate, σ, on each data point.
# In many cases, the particular gene in the pathway that is responsible for a particular phenotype can be identified. […]
smiles,measurement,setting,value
Clc1ccccc1C(c1ccccc1)(c1ccccc1)n1ccnc1 [clotrimazole],correlation coefficient r between clotrimazole transcriptional response and landmark profile,landmark: yeast having a disruption of the ERG11 gene (FIG. 2f),0.96
same,correlation coefficient r between clotrimazole transcriptional response and landmark profile,landmark: yeast having a disruption of the HMG2 gene (FIG. 2e),0.83
